Data published in publication PMC9611727, “Optimization of a Novel Mandelamide-Derived Pyrrolopyrimidine Series of PERK Inhibitors” (Pharmaceutics, 2022).

Legend:
Experiment in all cases: scanMAX kinase panel
Assay type in all cases: binding
Settings in all cases: read-out: % Control; for remaining binding at 1 µM: 1000 nM
TESK1 = target: T1, TESK1 (Homo sapiens, UniProt Q15569)
T1 construct: purchased DiscoverX (scanMAX panel)
From the text: (§1) Supplemental Table S2. scanMAXSM Kinome Assay Results. Complete tabulated data of all 468 kinases from the panel, including
(§2) 403 wild-type and 65 mutant isoforms. […] Cmpd 11 and Cmpd 24

NEK1 = target: T2, NEK1 (Homo sapiens, UniProt Q96PY6)
T2 construct: purchased DiscoverX scanMAX
T2 sequence (Q96PY6 1-1258): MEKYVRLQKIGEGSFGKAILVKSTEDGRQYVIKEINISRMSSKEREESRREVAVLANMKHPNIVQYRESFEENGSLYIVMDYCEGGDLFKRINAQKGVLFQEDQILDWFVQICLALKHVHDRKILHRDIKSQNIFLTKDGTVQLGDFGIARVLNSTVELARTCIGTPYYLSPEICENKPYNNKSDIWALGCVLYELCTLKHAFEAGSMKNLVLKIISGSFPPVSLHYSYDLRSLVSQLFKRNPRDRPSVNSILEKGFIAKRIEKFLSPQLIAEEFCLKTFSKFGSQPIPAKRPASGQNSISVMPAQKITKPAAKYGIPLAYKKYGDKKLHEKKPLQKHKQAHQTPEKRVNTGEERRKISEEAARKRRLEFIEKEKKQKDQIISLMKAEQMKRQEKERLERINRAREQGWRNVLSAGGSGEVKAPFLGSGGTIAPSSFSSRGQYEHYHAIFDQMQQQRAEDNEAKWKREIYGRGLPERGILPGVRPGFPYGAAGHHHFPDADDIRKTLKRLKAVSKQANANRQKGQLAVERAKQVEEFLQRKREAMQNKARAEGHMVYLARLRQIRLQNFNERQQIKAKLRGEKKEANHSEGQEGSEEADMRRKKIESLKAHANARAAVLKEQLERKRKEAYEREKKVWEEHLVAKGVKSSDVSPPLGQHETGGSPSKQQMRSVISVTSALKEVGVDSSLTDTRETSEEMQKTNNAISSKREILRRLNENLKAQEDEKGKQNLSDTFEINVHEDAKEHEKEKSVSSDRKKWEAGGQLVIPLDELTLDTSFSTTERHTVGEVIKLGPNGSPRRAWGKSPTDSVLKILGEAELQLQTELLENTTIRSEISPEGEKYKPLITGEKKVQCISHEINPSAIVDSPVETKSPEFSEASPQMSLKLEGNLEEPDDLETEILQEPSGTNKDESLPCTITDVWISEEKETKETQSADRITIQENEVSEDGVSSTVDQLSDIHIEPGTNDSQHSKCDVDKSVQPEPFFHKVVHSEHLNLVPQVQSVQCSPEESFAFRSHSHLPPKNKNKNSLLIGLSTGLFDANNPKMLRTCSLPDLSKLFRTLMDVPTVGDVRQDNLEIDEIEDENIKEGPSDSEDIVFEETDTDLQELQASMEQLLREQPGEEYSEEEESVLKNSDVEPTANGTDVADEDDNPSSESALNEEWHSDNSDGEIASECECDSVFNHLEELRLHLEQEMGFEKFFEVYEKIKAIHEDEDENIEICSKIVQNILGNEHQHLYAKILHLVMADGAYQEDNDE
From the text: as §1, §2

RIOK2 = target: T3, RIOK2 (Homo sapiens, UniProt Q9BVS4)
T3 construct: purchased DiscoverX (scanMAX panel)
T3 sequence (Q9BVS4 whole entry): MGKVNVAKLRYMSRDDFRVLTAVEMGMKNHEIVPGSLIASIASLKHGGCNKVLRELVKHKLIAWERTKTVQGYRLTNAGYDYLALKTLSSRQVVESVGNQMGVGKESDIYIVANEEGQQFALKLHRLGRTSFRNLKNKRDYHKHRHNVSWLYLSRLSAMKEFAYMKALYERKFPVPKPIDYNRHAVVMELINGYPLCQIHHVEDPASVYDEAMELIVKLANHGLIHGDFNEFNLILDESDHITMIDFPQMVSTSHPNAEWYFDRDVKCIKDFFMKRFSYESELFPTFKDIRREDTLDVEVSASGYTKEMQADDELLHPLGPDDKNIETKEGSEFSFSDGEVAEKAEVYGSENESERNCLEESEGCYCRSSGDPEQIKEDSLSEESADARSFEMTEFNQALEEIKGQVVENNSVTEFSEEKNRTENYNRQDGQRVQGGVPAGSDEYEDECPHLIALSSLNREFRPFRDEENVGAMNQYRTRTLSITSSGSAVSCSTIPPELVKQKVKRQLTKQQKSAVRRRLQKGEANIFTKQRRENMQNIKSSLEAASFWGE
From the text: as §1, §2

CAMK4 = target: T4, CAMK4 (Homo sapiens, UniProt Q16566)
T4 construct: purchased DiscoverX scanMAX
T4 sequence (Q16566 1-473): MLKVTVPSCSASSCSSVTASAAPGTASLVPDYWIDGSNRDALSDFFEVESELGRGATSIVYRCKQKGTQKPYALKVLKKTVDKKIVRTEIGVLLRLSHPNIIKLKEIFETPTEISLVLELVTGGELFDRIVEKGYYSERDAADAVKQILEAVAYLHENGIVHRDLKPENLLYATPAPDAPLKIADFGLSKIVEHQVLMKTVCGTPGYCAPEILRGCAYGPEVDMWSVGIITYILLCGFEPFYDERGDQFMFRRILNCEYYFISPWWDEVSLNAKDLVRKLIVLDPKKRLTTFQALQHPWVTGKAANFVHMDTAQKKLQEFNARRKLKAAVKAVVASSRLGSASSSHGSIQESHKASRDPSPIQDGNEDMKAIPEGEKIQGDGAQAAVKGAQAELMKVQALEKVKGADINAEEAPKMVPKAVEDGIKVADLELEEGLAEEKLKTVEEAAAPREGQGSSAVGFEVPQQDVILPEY
From the text: as §1, §2

MERTK = target: T5, MERTK (Homo sapiens, UniProt Q12866)
T5 construct: purchased DiscoverX scanMAX
T5 sequence (Q12866 21-999): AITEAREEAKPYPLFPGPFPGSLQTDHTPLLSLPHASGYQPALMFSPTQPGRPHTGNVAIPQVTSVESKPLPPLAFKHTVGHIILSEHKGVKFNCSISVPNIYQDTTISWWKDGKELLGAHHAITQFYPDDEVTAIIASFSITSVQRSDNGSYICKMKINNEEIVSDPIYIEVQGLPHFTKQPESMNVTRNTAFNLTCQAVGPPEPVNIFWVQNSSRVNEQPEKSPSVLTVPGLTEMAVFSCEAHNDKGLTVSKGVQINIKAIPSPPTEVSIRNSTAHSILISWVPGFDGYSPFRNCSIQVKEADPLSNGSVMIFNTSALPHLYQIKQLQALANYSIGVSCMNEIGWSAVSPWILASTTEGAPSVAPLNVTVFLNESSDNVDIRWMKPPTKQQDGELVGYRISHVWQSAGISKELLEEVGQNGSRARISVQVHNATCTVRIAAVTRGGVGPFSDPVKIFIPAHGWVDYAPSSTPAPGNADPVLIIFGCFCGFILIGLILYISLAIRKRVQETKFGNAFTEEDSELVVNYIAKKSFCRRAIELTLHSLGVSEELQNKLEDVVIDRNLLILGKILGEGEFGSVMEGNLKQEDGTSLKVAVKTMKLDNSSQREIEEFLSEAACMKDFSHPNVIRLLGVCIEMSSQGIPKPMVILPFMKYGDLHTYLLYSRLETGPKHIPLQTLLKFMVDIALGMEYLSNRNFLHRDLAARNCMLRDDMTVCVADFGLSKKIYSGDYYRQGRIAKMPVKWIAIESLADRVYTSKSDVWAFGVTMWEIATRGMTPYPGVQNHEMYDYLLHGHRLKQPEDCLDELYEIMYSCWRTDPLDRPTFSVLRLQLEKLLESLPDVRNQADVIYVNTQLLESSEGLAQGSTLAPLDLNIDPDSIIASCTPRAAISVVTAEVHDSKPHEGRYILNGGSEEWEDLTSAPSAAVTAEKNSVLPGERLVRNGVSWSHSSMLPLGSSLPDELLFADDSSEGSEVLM
From the text: as §1, §2

CDK8 = target: T6, CDK8 (Homo sapiens, UniProt P49336)
T6 construct: purchased DiscoverX scanMAX
T6 sequence (P49336 whole entry): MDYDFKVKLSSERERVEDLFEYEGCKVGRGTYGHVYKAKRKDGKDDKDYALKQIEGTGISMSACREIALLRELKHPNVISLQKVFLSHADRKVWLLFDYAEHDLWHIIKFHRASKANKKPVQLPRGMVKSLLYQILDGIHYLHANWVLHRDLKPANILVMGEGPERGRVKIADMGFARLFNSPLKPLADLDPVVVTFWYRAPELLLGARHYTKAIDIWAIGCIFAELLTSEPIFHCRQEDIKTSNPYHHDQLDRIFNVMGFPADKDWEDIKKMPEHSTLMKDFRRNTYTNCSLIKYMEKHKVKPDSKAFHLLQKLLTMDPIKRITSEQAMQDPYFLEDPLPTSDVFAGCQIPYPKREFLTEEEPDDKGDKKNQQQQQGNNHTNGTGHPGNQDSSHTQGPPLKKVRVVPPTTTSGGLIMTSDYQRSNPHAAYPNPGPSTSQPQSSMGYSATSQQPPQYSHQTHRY
From the text: as §1, §2

T1 sequence (Q15569 whole entry): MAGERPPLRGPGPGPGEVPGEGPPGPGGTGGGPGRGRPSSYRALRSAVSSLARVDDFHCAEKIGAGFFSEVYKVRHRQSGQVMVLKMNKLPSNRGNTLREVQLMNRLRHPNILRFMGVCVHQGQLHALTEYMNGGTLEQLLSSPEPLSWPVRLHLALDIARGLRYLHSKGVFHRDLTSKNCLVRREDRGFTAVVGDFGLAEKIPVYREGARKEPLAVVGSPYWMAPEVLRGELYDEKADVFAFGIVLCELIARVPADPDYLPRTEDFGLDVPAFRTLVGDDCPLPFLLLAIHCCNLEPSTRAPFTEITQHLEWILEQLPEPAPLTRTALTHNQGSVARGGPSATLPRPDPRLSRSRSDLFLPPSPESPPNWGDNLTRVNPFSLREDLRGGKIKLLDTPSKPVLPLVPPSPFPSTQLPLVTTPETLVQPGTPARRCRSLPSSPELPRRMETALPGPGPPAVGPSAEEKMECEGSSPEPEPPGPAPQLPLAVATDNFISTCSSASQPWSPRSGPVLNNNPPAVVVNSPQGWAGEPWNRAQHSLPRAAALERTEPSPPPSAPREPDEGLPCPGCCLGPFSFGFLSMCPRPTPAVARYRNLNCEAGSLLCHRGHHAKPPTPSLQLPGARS

Structure (SMILES)	remaining binding at 1 µM (TESK1)	remaining binding at 1 µM (NEK1)	remaining binding at 1 µM (RIOK2)	remaining binding at 1 µM (CAMK4)	remaining binding at 1 µM (MERTK)	remaining binding at 1 µM (CDK8)	remaining binding at 0.1 µM (TESK1; 100 nM)	remaining binding at 0.1 µM (NEK1; 100 nM)	remaining binding at 0.1 µM (RIOK2; 100 nM)	remaining binding at 0.1 µM (CAMK4; 100 nM)	remaining binding at 0.1 µM (MERTK; 100 nM)	remaining binding at 0.1 µM (CDK8; 100 nM)
Cc1cc(NC(=O)[C@H](O)c2cccc(F)c2)ccc1-c1cn(C)c2ncnc(N)c12 [Compound 11, (R)-N-(4-(4-amino-7-methyl-7H-pyrrolo[2,3-d]pyrimidin-5-yl)-3-methylphenyl)-2-(3-fluorophenyl)-2-hydroxy acetamide]	15%	2.9%	20%	32%	65%	2.5%						
Cc1nc(N)c2c(-c3ccc(NC(=O)[C@H](O)c4cccc(F)c4)cc3C)cn(C)c2n1 [Compound 24]	100%	100%	89%	100%	100%	98%						
Cc1nc(N)c2c(-c3ccc(NC(=O)[C@H](O)c4cccc(C(F)(F)F)c4)cc3C)cn(C)c2n1 [Compound 26]	99%	100%	92%	75%	29%	57%	97%	88%	91%	100%	94%	100%
